BindingDB's records for doi:10.1124/mol.107.042622 (The Johns Hopkins University, 2008)

target: DNA-(apurinic or apyrimidinic site) endonuclease (Homo sapiens, UniProt P27695); experiment: High-Throughput Screening and IC50 Determinations; conditions: pH 7.5; 22 °C
Procedure: The screening assay was performed using 384-well microtiter plate first spotted with test compounds. Then Ape1 in reaction buffer was added to each well. The reaction was initiated through the addition of substrate. After incubation, the final fluorescence was measured using a FLUOstar Optima plate reader (BMG Labtech GmbH, Offenburg, Germany) at excitation and emission wavelengths of 485 and 520 nm, respectively. IC50 analyses were carried out on the best hits by first plating 10-fold dilutions of each inhibitor onto 384-well plates. Using the initial rate values, percentage activity was calculated for each sample relative to a negative (DMSO only) control. The data were fitted to a sigmoidal dose-response model using Prism software (GraphPad Software, San Diego, CA).

Sequence of DNA-(apurinic or apyrimidinic site) endonuclease (P27695 whole entry): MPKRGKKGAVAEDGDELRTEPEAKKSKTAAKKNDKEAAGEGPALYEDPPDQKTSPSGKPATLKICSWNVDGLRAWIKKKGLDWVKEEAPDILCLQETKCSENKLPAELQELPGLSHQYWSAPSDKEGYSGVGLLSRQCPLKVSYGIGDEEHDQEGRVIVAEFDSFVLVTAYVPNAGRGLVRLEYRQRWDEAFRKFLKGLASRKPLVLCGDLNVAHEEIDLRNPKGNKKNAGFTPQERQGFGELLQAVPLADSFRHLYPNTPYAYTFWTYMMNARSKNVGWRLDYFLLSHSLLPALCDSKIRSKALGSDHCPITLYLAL

Row | SMILES | IC50 | Ki
1 | O=C(Nc1cc[c]([Sb](=[O])([OH])[OH])cc1)c1ccccc1 [N-{4-[dihydroxy(oxo)--stibanyl]phenyl}benzamide] | 300 nM | 
2 | O=C(O)/C=C/c1ccc[c]([Sb](=[O])([OH])[OH])c1 [(2E)-3-{3-[dihydroxy(oxo)--stibanyl]phenyl}prop-2-enoic acid] | 200 nM | 
3 | CCOC(=O)CCCc1cc[c]([Sb](=[O])([OH])[OH])cc1 [ethyl 4-{4-[dihydroxy(oxo)--stibanyl]phenyl}butanoate] | 17 nM | 36 nM
4 | O=C(O)c1cc[c]([Sb](=[O])([OH])[OH])cc1[N+](=O)[O-] [4-[dihydroxy(oxo)--stibanyl]-2-nitrobenzoic acid] | 4 nM | 19 nM
